Measurements as given in patent publication US20240050428A1 (Cullgen (Shanghai), Inc., priority 2020, published 2024).
Where two headings read alike, the source gives them in different places.

Tests used:
MV4;11 cells = assay: Cell viability assay (CellTiter-Glo) in MV4;11 cells, alone or with gilteritinib; type: cell-based; details: Homo sapiens, MV4-11, 72 h, MV4;11 cells, three days, CellTiter-Glo, read-out: MV4
MOLM-13 cells = assay: Cell viability assay (CellTiter-Glo) in MOLM-13 cells, alone or with gilteritinib; type: cell-based; details: Homo sapiens, MOLM-13, 72 h, MOLM-13 cells, three days, CellTiter-Glo
[1] = compound alone (without gilteritinib), 11 IC50
[2] = compound with gilteritinib 10 nM, 11 IC50 gilteritinib
[3] = compound alone (without gilteritinib), read-out: MOLM-13 IC50
[4] = compound with gilteritinib 20 nM, read-out: MOLM-13 IC50 gilteritinib

IC50 (MV4;11 cells; [1]) [nM] | IC50 (MV4;11 cells; [2]) [nM] | IC50 (MOLM-13 cells; [3]) [nM] | IC50 (MOLM-13 cells; [4]) [nM] | SMILES
> 1000 | 100 to 1000 | > 1000 | 10 to 100 | O=C1CCC(N2C(=O)c3ccc(NCCC4CC(n5cc(-c6cnc7ccccc7n6)cn5)C4)cc3C2=O)C(=O)N1 (stereo not shown) [GS-561, 2-(2,6-Dioxopiperidin-3-yl)-5-((2-(3-(4-(quinoxalin-2-yl)-1H-pyrazol-1-yl)cyclobutyl)ethyl)amino)isoindoline-1,3-dione]
10 to 100 | < 10 | 10 to 100 | < 10 | O=C1CCC(N2C(=O)c3ccc(NCCC4CC5(C4)CC(n4cc(-c6cnc7ccccc7n6)cn4)C5)cc3C2=O)C(=O)N1 (stereo not shown) [GS-564, 2-(2,6-Dioxopiperidin-3-yl)-5-((2-(6-(4-(quinoxalin-2-yl)-1H-pyrazol-1-yl)spiro[3.3]heptan-2-yl)ethyl)amino)isoindoline-1,3-dione]
> 1000 | 100 to 1000 | > 1000 | 10 to 100 | O=C1CCC(N2C(=O)c3cccc(NCCCC4CC(n5cc(-c6cnc7ccccc7n6)cn5)C4)c3C2=O)C(=O)N1 (stereo not shown) [GS-565, 2-(2,6-Dioxopiperidin-3-yl)-4-((3-(3-(4-(quinoxalin-2-yl)-1-pyrazol-1-yl)cyclobutyl)propyl)amino)isoindoline-1,3-dione]
> 1000 | 100 to 1000 | > 1000 | 100 to 1000 | O=C1CCC(N2C(=O)c3ccc(NCCCC4CC(n5cc(-c6cnc7ccc(CC8CNC8)cc7n6)cn5)C4)cc3C2=O)C(=O)N1 (stereo not shown) [GS-566, 5-((3-(3-(4-(7-(Azetidin-3-ylmethyl)quinoxalin-2-yl)-1H-pyrazol-1-yl)cyclobutyl)propyl)amino)-2-(2,6-dioxopiperidin-3-yl)isoindoline-1,3-dione]
100 to 1000 | 10 to 100 | 100 to 1000 | < 10 | O=C1CCC(N2C(=O)c3ccc(NCCCC4CC(n5cc(-c6cnc7ccc(NC8COC8)cc7n6)cn5)C4)cc3C2=O)C(=O)N1 (stereo not shown) [GS-567, 2-(2,6-Dioxopiperidin-3-yl)-5-((3-(3-(4-(7-(oxetan-3-ylamino)quinoxalin-2-yl)-1H-pyrazol-1-yl)cyclobutyl)propyl)amino)isoindoline-1,3-dione]
10 to 100 | < 10 | 10 to 100 | < 10 | O=C1CCC(N2C(=O)c3ccc(NCCC[C@H]4C[C@H](n5cc(-c6cnc7ccccc7n6)c(C6CC6)n5)C4)cc3C2=O)C(=O)N1 (stereo partly drawn) [GS-568, 5-((3-((trans)-3-(3-Cyclopropyl-4-(quinoxalin-2-yl)-1H-pyrazol-1-yl)cyclobutyl)propyl)amino)-2-(2,6-dioxopiperidin-3-yl)isoindoline-1,3-dione]
< 10 | < 10 | < 10 | < 10 | O=C1CCC(N2C(=O)c3ccc(NC[C@H]4C[C@H](n5cc(-c6cnc7ccccc7n6)c(C6CC6)n5)C4)cc3C2=O)C(=O)N1 (stereo partly drawn) [GS-579, 5-(((trans-3-(3-Cyclopropyl-4-(quinoxalin-2-yl)-1H-pyrazol-1-yl)cyclobutyl)methyl)amino)-2-(2,6-dioxopiperidin-3-yl)isoindoline-1,3-dione]
100 to 1000 | 10 to 100 | > 1000 | 10 to 100 | O=C1CCC(N2C(=O)c3ccc(NCCC[C@H]4C[C@H](n5cc(-c6ccccn6)cn5)C4)cc3C2=O)C(=O)N1 (stereo partly drawn) [GS-582, 2-(2,6-Dioxopiperidin-3-yl)-5-((3-(trans-3-(4-(pyridin-2-yl)-1H-pyrazol-1-yl)cyclobutyl)propyl)amino)isoindoline-1,3-dione]
10 to 100 | < 10 | 10 to 100 | < 10 | O=C1CCC(N2C(=O)c3ccc(NCCC[C@H]4C[C@H](n5cc(-c6cnc7ccc(NC8COC8)cc7n6)cn5)C4)cc3C2=O)C(=O)N1 (stereo partly drawn) [GS-585, 2-(2,6-Dioxopiperidin-3-yl)-5-((3-(trans-3-(4-(7-(oxetan-3-ylamino)quinoxalin-2-yl)-1H-pyrazol-1-yl)cyclobutyl)propyl)amino)isoindoline-1,3-dione]

The remaining lines, values behind:

SMILES | IC50 (MV4;11 cells; [1]) [nM] | IC50 (MV4;11 cells; [2]) [nM] | IC50 (MOLM-13 cells; [3]) [nM] | IC50 (MOLM-13 cells; [4]) [nM]
O=C1CCC(N2C(=O)c3ccc(NCCCCCCn4cc(-c5cnc6ccc(C(F)(F)F)cc6n5)cn4)cc3C2=O)C(=O)N1 (stereo not shown) [GS-559] | 10 to 100 | 10 to 100 | 10 to 100 | < 10
O=C1CCC(N2C(=O)c3ccc(NCCCCCCn4cc(-c5cnc6ccc(C7CC7)cc6n5)cn4)cc3C2=O)C(=O)N1 (stereo not shown) [GS-562, 5-((6-(4-(7-Cyclopropylquinoxalin-2-yl)-1H-pyrazol-1-yl)hexyl)amino)-2-(2,6-dioxopiperidin-3-yl)isoindoline-1,3-dione] | 10 to 100 | 10 to 100 | 10 to 100 | < 10
O=C1CCC(N2C(=O)c3ccc(NCCCCCCn4cc(-c5cnc6ccc(N7CCOCC7)cc6n5)c(C5CC5)n4)cc3C2=O)C(=O)N1 (stereo not shown) [GS-569, 5-((6-(3-Cyclopropyl-4-(7-morpholinoquinoxalin-2-yl)-1H-pyrazol-1-yl)hexyl)amino)-2-(2,6-dioxopiperidin-3-yl)isoindoline-1,3-dione] | < 10 | < 10 | < 10 | < 10
CN1CCN(c2ccc3ncc(-c4cn(CCCCCCNc5ccc6c(c5)C(=O)N(C5CCC(=O)NC5=O)C6=O)nc4C4CC4)nc3c2)CC1 (stereo not shown) [GS-570, 5-((6-(3-Cyclopropyl-4-(7-(4-methylpiperazin-1-yl)quinoxalin-2-yl)-1H-pyrazol-1-yl)hexyl)amino)-2-(2,6-dioxopiperidin-3-yl)isoindoline-1,3-dione] | 10 to 100 | < 10 | 100 to 1000 | < 10
O=C1CCC(N2C(=O)c3ccc(NCCCCCCn4cc(-c5cnc6ccc(C7CCOCC7)cc6n5)c(C5CC5)n4)cc3C2=O)C(=O)N1 (stereo not shown) [GS-571, 5-((6-(3-Cyclopropyl-4-(7-(tetrahydro-2H-pyran-4-yl)quinoxalin-2-yl)-1H-pyrazol-1-yl)hexyl)amino)-2-(2,6-dioxopiperidin-3-yl)isoindoline-1,3-dione] | < 10 | < 10 | 10 to 100 | < 10
CN1CCC(c2ccc3ncc(-c4cn(CCCCCCNc5ccc6c(c5)C(=O)N(C5CCC(=O)NC5=O)C6=O)nc4C4CC4)nc3c2)CC1 (stereo not shown) [GS-572, 5-((6-(3-Cyclopropyl-4-(7-(1-methylpiperidin-4-yl)quinoxalin-2-yl)-1H-pyrazol-1-yl)hexyl)amino)-2-(2,6-dioxopiperidin-3-yl)isoindoline-1,3-dione] | 10 to 100 | < 10 | 100 to 1000 | < 10
C[C@H]1CN(c2ccc3ncc(-c4cnn([C@H]5C[C@H](CCCNc6ccc7c(c6)C(=O)N(C6CCC(=O)NC6=O)C7=O)C5)c4)nc3c2)CCN1C (stereo partly drawn) [GS-575, 5-((3-(trans-3-(4-(7-((S)-3,4-Dimethylpiperazin-1-yl)quinoxalin-2-yl)-1H-pyrazol-1-yl)cyclobutyl)propyl)amino)-2-(2,6-dioxopiperidin-3-yl)isoindoline-1,3-dione] | 10 to 100 | < 10 | 10 to 100 | < 10
C[C@H]1CN(c2ccc3ncc(-c4cnn([C@H]5C[C@H](CCCNc6ccc7c(c6)C(=O)N(C6CCC(=O)NC6=O)C7=O)C5)c4)nc3c2)CCN1 (stereo partly drawn) [GS-576, 2-(2,6-Dioxopiperidin-3-yl)-5-((3-(trans-3-(4-(7-((S)-3-methylpiperazin-1-yl)quinoxalin-2-yl)-1H-pyrazol-1-yl)cyclobutyl)propyl)amino)isoindoline-1,3-dione] | 10 to 100 | < 10 | 10 to 100 | < 10
O=C1CCC(N2C(=O)c3ccc(NC[C@H]4C[C@H](n5cc(-c6ccccn6)cn5)C4)cc3C2=O)C(=O)N1 (stereo partly drawn) [GS-577, 2-(2,6-Dioxopiperidin-3-yl)-5-(((trans-3-(4-(pyridin-2-yl)-1H-pyrazol-1-yl)cyclobutyl)methyl)amino)isoindoline-1,3-dione] | > 1000 | > 1000 | 100 to 1000 | 100 to 1000
Cc1cccc(-c2cnn([C@H]3C[C@H](CNc4ccc5c(c4)C(=O)N(C4CCC(=O)NC4=O)C5=O)C3)c2)n1 (stereo partly drawn) [GS-578, 2-(2,6-Dioxopiperidin-3-yl)-5-(((trans-3-(4-(6-methylpyridin-2-yl)-1H-pyrazol-1-yl)cyclobutyl)methyl)amino)isoindoline-1,3-dione] | > 1000 | 100 to 1000 | > 1000 | 100 to 1000
O=C1CCC(N2C(=O)c3ccc(NCCC[C@H]4C[C@H](n5cc(-c6cnc7ccc(N8CCN(C9CCC9)CC8)cc7n6)cn5)C4)cc3C2=O)C(=O)N1 (stereo partly drawn) [GS-580, 5-((3-(trans-3-(4-(7-(4-Cyclobutylpiperazin-1-yl)quinoxalin-2-yl)-1H-pyrazol-1-yl)cyclobutyl)propyl)amino)-2-(2,6-dioxopiperidin-3-yl)isoindoline-1,3-dione] | 10 to 100 | < 10 | 10 to 100 | < 10
C[C@@H]1CN(c2ccc3ncc(-c4cnn([C@H]5C[C@H](CCCNc6ccc7c(c6)C(=O)N(C6CCC(=O)NC6=O)C7=O)C5)c4)nc3c2)CCN1C (stereo partly drawn) [GS-581, 5-((3-(trans-3-(4-(7-((R)-3,4-Dimethylpiperazin-1-yl)quinoxalin-2-yl)-1H-pyrazol-1-yl)cyclobutyl)propyl)amino)-2-(2,6-dioxopiperidin-3-yl)isoindoline-1,3-dione] | > 1000 | 10 to 100 | > 1000 | < 10
Cc1cccc(-c2cnn([C@H]3C[C@H](CCCNc4ccc5c(c4)C(=O)N(C4CCC(=O)NC4=O)C5=O)C3)c2)n1 (stereo partly drawn) [GS-584, 2-(2,6-Dioxopiperidin-3-yl)-5-((3-(trans-3-(4-(6-methylpyridin-2-yl)-1H-pyrazol-1-yl)cyclobutyl)propyl)amino)isoindoline-1,3-dione] | 10 to 100 | 10 to 100 | 100 to 1000 | < 10
